From PubChem BioAssay AID1845212 (Molecular Pharmacology Branch, DTP, NCI, 2023)
Where “and” joins values, the source holds several entries; their conditions need not be identical. Equal values may be shown once. Calls of active or inactive are those of the source. How the source made its calls: active means viability on the fitted dose curve at most 10% of control; inactive means the rest.

Test system: NCI-H719 tumor spheroids, viability
Assay: Anticancer human tumor NCI-H719 cell line growth inhibition;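 on IC50: spheroids exposed to compounds for seven days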;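 on viability, T/C: spheroids exposed to compounds for seven days; percent viability relative to DMSO vehicle control as 100%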
Conditions: spheroids with HUVEC and MSC; for viability, T/C: stronger effect = lower value
Text: Multicellular complex tumor spheroid response to DNA repair inhibitors in combination with DNA-damaging drugs
This study explores the anticancer activities of DNA-damaging drugs and inhibitors of DNA damage repair, both as single agents and in combinations. Complex tumor spheroids comprised of malignant cells, endothelial cells and mesenchymal stem cells served as an in vitro model for human solid tumors. This model system incorporates physiologically relevant features and patient-derived or established malignant cell lines with clinically relevant genetic alterations from many tumor types. Twenty-six patient-derived or established malignant cell lines were evaluated representing sarcoma, melanoma, small cell lung cancer (SCLC), non-small cell lung cancer (NSCLC), as well as bladder, ovarian and pancreatic cancers. The concentration ranges selected for each drug and investigational agent were based upon clinically achievable concentrations if the clinical Cmax of the agent was known.
Compounds. The drugs and compounds olaparib (NSC753686), talazoparib (NSC767125), berzosertib (NSC777718), elimusertib (NSC800525), nedisertib (NSC802822), VX-984 (NSC792969), AZD-1390 (NSC803789), temozolomide (NSC362856), topotecan (NSC609699), trabectedin (NSC813783), staurosporine (NSC755774), and gemcitabine (NSC613327) were obtained from the National Cancer Institute (NCI) Developmental Therapeutics Program Chemical Repository. The FDA-approved anticancer drug set is available from the Developmental Therapeutics Program at https://dtp.cancer.gov/organization/dscb/obtaining/available_plates.htm. […] The stock solutions were prepared in dimethyl sulfoxide (DMSO, Sigma-Aldrich, St. Louis, MO, cat. D2650) at 400-fold the tested concentration and stored at -70 degrees C. Prior to their use, the stock solutions were diluted in fresh medium and the final DMSO concentration in the assay was 0.25% (v/v). All drugs and investigational agents were tested over a range starting from a high concentration at or near the clinical Cmax and decreasing in half-log increments. If the clinical Cmax for an agent had not been determined, the highest concentration tested was 10 microM.
Cell Lines. The patient-derived cancer cell (PDC) lines: 156681-154-R-J1-PDC, 283228-195-R-J1-PDC, 287954-098-R-J1-PDC, 292921-168-R-J2-PDC, 349418-098-R-PDC, 425362-245-T-J1-PDC, 556581-035-R-J1-PDC, and BL0293-F563-PDC were received from the NCI Patient-Derived Models Repository (PDMR, https://pdmr.cancer.gov). The established cell lines HS-SY-2 (RRID:CVCL_8719), MPNST, and SYO-1 (RRID:CVCL_7146) were obtained from the Sloan Kettering Institute. The alveolar soft parts sarcoma cell line ASPS-1 (RRID:CVCL_S738) was established at the NCI and grown from internal seed stocks. The following established cell lines were purchased from the American Type Culture Collection (ATCC, Manassas, VA): G-401 (ATCC, cat. CRL-1441, RRID:CVCL_0270), SW982 (ATCC, cat. HTB-93, RRID:CVCL_1734), VA-ES-BJ (ATCC, cat. CRL-2138, RRID:CVCL_1785), NCI-H719 (ATCC, cat. CRL-5837, RRID:CVCL_1582), NCI-H196 (ATCC, cat. CRL-5823, RRID:CVCL_1509), NCI-H841 (ATCC, cat. CRL-5845, RRID:CVCL_1595), NCI-H1618 (ATCC, cat. CRL-5879, RRID:CVCL_1480), NCI-H1876 (ATCC, cat. CRL-5902, RRID:CVCL_1503), DMS 114 (ATCC, cat. CRL-2066; RRID:CVCL_1174), NCI-H211 (ATCC, cat. CRL-5824; RRID:CVCL_1529), and SW 1271 (ATCC, cat. CRL-2177, RRID:CVCL_1716). The small cell lung cancer cell line COR-L88 was purchased from Sigma-Aldrich (cat. 92031917-1VL, RRID:CVCL_1141). The non-small cell lung cancer cell lines NCI-H226 (RRID:CVCL_1544) and NCI-H322M (RRID:CVCL_1557) were established at the NCI and grown from internal seed stocks. Pooled donor human umbilical vein endothelial cells (HUVEC, Lonza, cat. CC-2519) and human mesenchymal stem cells (hMSC, Lonza, cat. PT-2501) were purchased from Lonza (Walkersville, MD).
Cell Culture. All cells were maintained in an incubator at 37 degrees C and 5% CO2 with 95% humidity. […]

With `[2H]c1nc(C)nc([2H])c1-c1cc(NC[C@@H](C)c2cccc3c(C(=O)NC)ccnc23)ncn1` the viability, T/C (compound 0.0316 µM) was 94% and 100% and 109%, the viability, T/C (compound 0.1 µM) was 99.8% and 100% and 112% and the viability, T/C (compound 0.316 µM) was 91.7% and 123%. For the same compound, the outcome (compound 0.316 µM) was “inactive”, the viability, T/C (compound 1 µM) was 88.7% and 104% and 94.6% and the viability, T/C (compound 3.16 µM) was 71.9% and 105% and 111%. For the same compound, the viability, T/C (compound 10 µM) was 99.7% and 92.6% and 95.8% and the IC50 (curve of compound) was greater than 10 µM.

In the case of `O=C(c1cc(Cc2n[nH]c(=O)c3ccccc23)ccc1F)N1CCN(C(=O)C2CC2)CC1`, the viability, T/C (compound 0.0949 µM) is reported as 90.1% and 105% and 85.6%, the viability, T/C (compound 0.3 µM) is reported as 61.4% and 93.6% and 95.1% and the viability, T/C (compound 0.949 µM) is reported as 71.1% and 82% and 81.4%. For the same compound, the viability, T/C (compound 3 µM) was 51.2% and 34.2% and 52.1%, the viability, T/C (compound 9.49 µM) was 30.8% and 7.1% and 16.9% and the IC50 (curve of compound) was 3.09 µM and 2.03 µM and 3.15 µM.

`[2H]c1nc(C)nc([2H])c1-c1cc(NC[C@@H](C)c2cccc3c(C(=O)NC)ccnc23)ncn1` + Cn1nnc2c(C(N)=O)ncn2c1=O gave an IC50 (curve of first compound, second compound 1 µM) greater than 10 µM, an IC50 (curve of first compound, second compound 3.16 µM) greater than 10 µM and an IC50 (curve of first compound, second compound 10 µM) greater than 10 µM. It also gave an IC50 (curve of first compound, second compound 31.6 µM) greater than 10 µM, an IC50 (curve of first compound, second compound 100 µM) greater than 10 µM and a viability, T/C (second compound 1 µM, first compound 0.0316 µM) of 93.8%. For the same compound, the viability, T/C (second compound 1 µM, first compound 0.1 µM) was 101%, the viability, T/C (second compound 1 µM, first compound 0.316 µM) was 90.4% and the viability, T/C (second compound 1 µM, first compound 1 µM) was 99.2%. It also gave a viability, T/C (second compound 1 µM, first compound 3.16 µM) of 90.6%, a viability, T/C (second compound 1 µM, first compound 10 µM) of 87.8% and a viability, T/C (second compound 3.16 µM, first compound 0.0316 µM) of 104%. It also gave a viability, T/C (second compound 3.16 µM, first compound 0.1 µM) of 90.1%, a viability, T/C (second compound 3.16 µM, first compound 0.316 µM) of 95.3% and a viability, T/C (second compound 3.16 µM, first compound 1 µM) of 94.4%. The viability, T/C (second compound 3.16 µM, first compound 3.16 µM) was 98.9%, the viability, T/C (second compound 3.16 µM, first compound 10 µM) was 98.7% and the viability, T/C (second compound 10 µM, first compound 0.0316 µM) was 103%. For the same compound, the viability, T/C (second compound 10 µM, first compound 0.1 µM) was 97%, the viability, T/C (second compound 10 µM, first compound 0.316 µM) was 90.4% and the viability, T/C (second compound 10 µM, first compound 1 µM) was 96.8%. For the same compound, the viability, T/C (second compound 10 µM, first compound 3.16 µM) was 89.8%, the viability, T/C (second compound 10 µM, first compound 10 µM) was 94.2% and the viability, T/C (second compound 31.6 µM, first compound 0.0316 µM) was 101%. For the same compound, the viability, T/C (second compound 31.6 µM, first compound 0.1 µM) was 105%, the viability, T/C (second compound 31.6 µM, first compound 0.316 µM) was 101% and the viability, T/C (second compound 31.6 µM, first compound 1 µM) was 104%. It also gave a viability, T/C (second compound 31.6 µM, first compound 3.16 µM) of 109%, a viability, T/C (second compound 31.6 µM, first compound 10 µM) of 82.4% and a viability, T/C (second compound 100 µM, first compound 0.0316 µM) of 87.1%. It also gave a viability, T/C (second compound 100 µM, first compound 0.1 µM) of 84.2%, a viability, T/C (second compound 100 µM, first compound 0.316 µM) of 68.6% and a viability, T/C (second compound 100 µM, first compound 1 µM) of 70.3%. It also gave a viability, T/C (second compound 100 µM, first compound 3.16 µM) of 68.2% and a viability, T/C (second compound 100 µM, first compound 10 µM) of 62.8%.
